The values below come from ChEMBL document CHEMBL4483862, “Open-source discovery of chemical leads for next-generation chemoprotective antimalarials” (2018).

pIC50: −log10 of the molar value.

The assay relates to Plasmodium berghei. As to the kind of experiment: Luciferase/luciferin-expressing antifolate-resistant parasites were used to infect a culture of HepG2 cells that were pre-incubated with compounds. Infected hepatocytes emit light due to the luciferase reaction. Assay results are presented as the percent inhibition of light emission compared to control. […]. Format: functional. As to conditions: sporozoite; for IC90: read-out: LUCIFERASE INFECTION ASSAY - IC90.

`CCCSC(=S)c1c(C)nn(-c2ccccc2)c1O`: the IC90 was greater than 11.3 µM. Also, the pIC50 (PBLUC_HILL_SLOPE 10.5, PBLUC_R_SQUARED 0.318, read-out: LUCIFERASE INFECTION ASSAY - IC50) is 5.00.
Turning to `CN(C)CCn1c(=O)n(Cc2ccccc2)c(=O)c2c3c(sc21)CCCCC3`, the IC90 was greater than 8.3 µM. Further, where the note is “PBLUC_HILL_SLOPE 10.5, PBLUC_R_SQUARED 0.0293, read-out: LUCIFERASE INFECTION ASSAY - IC50”, the pIC50 was 5.10.
For `CC(NCC(O)COC1CCC(C(C)(C)C)CC1)c1ccccc1` (configuration not stated), the IC90 is greater than 8.92 µM. The pIC50 (PBLUC_HILL_SLOPE 10.1, PBLUC_R_SQUARED 0.42, read-out: LUCIFERASE INFECTION ASSAY - IC50) was 5.13.
On to `COc1cccc(-c2cn3c(-c4ccccc4)cnc3cn2)c1F`, for which the IC90 came to 10.2 µM. Besides, the pIC50 (PBLUC_HILL_SLOPE 10.4, PBLUC_R_SQUARED 0.353, read-out: LUCIFERASE INFECTION ASSAY - IC50) is 5.08.
Regarding `CNC(=O)c1ccc(CN(Cc2ccco2)C(=O)c2cc(-c3cccs3)nn2-c2ccccc2)cc1`, the IC90 was found to be 4.68 µM. Besides, the negative logarithm of the IC50 (pIC50) (PBLUC_HILL_SLOPE 10.4, PBLUC_R_SQUARED 0.208, read-out: LUCIFERASE INFECTION ASSAY - IC50) is 5.42.
Regarding `N#CC(C#N)=NNc1ccc(F)c(F)c1F`, the IC90 came out at 14.5 µM. Moreover, the pIC50 (PBLUC_HILL_SLOPE 9.99, PBLUC_R_SQUARED 0.46, read-out: LUCIFERASE INFECTION ASSAY - IC50) was 4.94.
Consider `CC(C)(C)NC(=S)Nc1ccc(C(F)(F)F)cc1[N+](=O)[O-]`, for which the IC90 was greater than 10.3 µM. For the same compound, the negative logarithm of the IC50 (pIC50) (PBLUC_HILL_SLOPE 10.5, PBLUC_R_SQUARED 0.215, read-out: LUCIFERASE INFECTION ASSAY - IC50) was 5.04.
Turning to `CN(CC(=O)Nc1ccc(Oc2ccccc2)cc1)c1c(N)n(Cc2ccccc2)c(=O)[nH]c1=O`, the IC90 was greater than 10 µM. Where the note is “PBLUC_HILL_SLOPE 10.4, PBLUC_R_SQUARED 0.215, read-out: LUCIFERASE INFECTION ASSAY - IC50”, the pIC50 was 5.01.
On to `O=c1c2ccccc2oc2nc(-c3ccccc3)n(Cc3ccccc3)c(=O)c12`, for which the IC90 came out at 4.41 µM. Besides, the pIC50 (PBLUC_HILL_SLOPE 10.1, PBLUC_R_SQUARED 0.696, read-out: LUCIFERASE INFECTION ASSAY - IC50) is 5.45.
`COc1ccc(C2(c3ccc(OC)cc3)NC(=O)N(CC(=O)c3cc(C)n(C4CC4)c3C)C2=O)cc1`: the IC90 is greater than 10 µM. In addition, the pIC50 (PBLUC_HILL_SLOPE 10.1, PBLUC_R_SQUARED 0.388, read-out: LUCIFERASE INFECTION ASSAY - IC50) was 5.07.
Consider `O=c1c(Cl)c(NCC(c2ccco2)N2CCCCC2)cnn1-c1nc2ccccc2[nH]1` (configuration not stated), for which the IC90 is greater than 10 µM. For the same compound, the pIC50 (PBLUC_HILL_SLOPE 10.1, PBLUC_R_SQUARED 0.23, read-out: LUCIFERASE INFECTION ASSAY - IC50) is 5.05.
Take `Cc1c(C(=O)OCC(=O)c2ccc(OC(F)F)cc2)sc2nc3n(c(=O)c12)CCC3`: the IC90 was found to be 9.86 µM. For the setting “PBLUC_HILL_SLOPE 10.3, PBLUC_R_SQUARED 0.714, read-out: LUCIFERASE INFECTION ASSAY - IC50”, the pIC50 was 5.10.
`Cn1c(N)c(C(=O)c2cccc(S(=O)(=O)N3CCc4ccccc43)c2)c(=O)[nH]c1=O`: the IC90 is greater than 10 µM. Moreover, the pIC50 (PBLUC_HILL_SLOPE 10, PBLUC_R_SQUARED 0.0166, read-out: LUCIFERASE INFECTION ASSAY - IC50) is less than 5.00.
In the case of `Cc1ccc(C(=O)/C=C/c2cn(C)c(=O)n(C)c2=O)c(C)c1`, the IC90 is greater than 10 µM. Also, where the note is “PBLUC_HILL_SLOPE 10.4, PBLUC_R_SQUARED 0.461, read-out: LUCIFERASE INFECTION ASSAY - IC50”, the pIC50 was 5.06.
Turning to `CCN(CC)CCCNS(=O)(=O)c1c(C)n[nH]c1C`, the IC90 was greater than 10 µM. The pIC50 (PBLUC_HILL_SLOPE 10.1, PBLUC_R_SQUARED 0.0336, read-out: LUCIFERASE INFECTION ASSAY - IC50) was less than 5.00.
Take `Cc1ccccc1-c1ccnc2c1c(=O)[nH]c(=O)n2Cc1ccccc1`: the IC90 was greater than 9.61 µM. In addition, under “PBLUC_HILL_SLOPE 10.5, PBLUC_R_SQUARED 0.045, read-out: LUCIFERASE INFECTION ASSAY - IC50”, the negative-log IC50 (pIC50) was less than 5.02.
As for `CN(Cc1ccccc1NC(=O)c1ccc2c(c1)OCC(=O)N2)C1CCCCC1`, the IC90 was greater than 10 µM. Further, the pIC50 (PBLUC_HILL_SLOPE 10.4, PBLUC_R_SQUARED 0.15, read-out: LUCIFERASE INFECTION ASSAY - IC50) was 5.02.
Regarding `COc1cncc(-c2cc(Nc3ccc(Oc4ccccc4)cc3)ncn2)c1`, the IC90 is greater than 8.91 µM. Besides, the pIC50 (PBLUC_HILL_SLOPE 10.3, PBLUC_R_SQUARED 0.501, read-out: LUCIFERASE INFECTION ASSAY - IC50) was 5.11.
Turning to `Cc1c(-n2c(SCn3nnc4ccccc4c3=O)nc3ccccc3c2=O)c(=O)n(-c2ccccc2)n1C`, the IC90 is greater than 10 µM. Further, the pIC50 (PBLUC_HILL_SLOPE 10.1, PBLUC_R_SQUARED 0.287, read-out: LUCIFERASE INFECTION ASSAY - IC50) is 5.03.
For the compound `COc1cc(-c2cc(-c3ccccc3F)cnc2N)ccc1O`, the 90% effect concentration (IC90) was determined as 4.23 µM. For the same compound, the pIC50 (PBLUC_HILL_SLOPE 10.3, PBLUC_R_SQUARED 0.764, read-out: LUCIFERASE INFECTION ASSAY - IC50) is 5.47.
For the compound `COc1cc(-c2cc(-c3ccc(F)cc3)cnc2N)ccc1O`, the IC90 worked out at 4.78 µM. Also, the negative-log IC50 (pIC50) (PBLUC_HILL_SLOPE 9.98, PBLUC_R_SQUARED 0.631, read-out: LUCIFERASE INFECTION ASSAY - IC50) is 5.42.
For `Clc1ccc(-c2cnc3cnc(-c4ccccc4)cn23)cc1`, the IC90 was 4.82 µM. The negative logarithm of the IC50 (pIC50) (PBLUC_HILL_SLOPE 10.1, PBLUC_R_SQUARED 0.74, read-out: LUCIFERASE INFECTION ASSAY - IC50) was 5.41.
As for `COCCNC(=S)Nc1ccccc1CC(c1c[nH]c2ccccc12)c1c[nH]c2ccccc12`, the IC90 was greater than 10 µM. Moreover, the pIC50 (PBLUC_HILL_SLOPE 10.3, PBLUC_R_SQUARED 0.121, read-out: LUCIFERASE INFECTION ASSAY - IC50) is 5.03.
For the compound `O=C1/C(=C/Nc2cccc(O)c2)c2ccccc2C(=O)N1Cc1ccccc1`, the IC90 turned out to be 9.61 µM. For the setting “PBLUC_HILL_SLOPE 10.5, PBLUC_R_SQUARED 0.272, read-out: LUCIFERASE INFECTION ASSAY - IC50”, the negative-log IC50 (pIC50) is 5.11.
With `CCCC(=O)Nc1ccc(C(=O)C(C)SC2=NN/C(=C3\C=Nc4ccccc43)N2c2ccc(OCC)cc2)cc1` (configuration not stated), the IC90 is greater than 10 µM. In addition, under “PBLUC_HILL_SLOPE 9.99, PBLUC_R_SQUARED 0.53, read-out: LUCIFERASE INFECTION ASSAY - IC50”, the pIC50 was 5.09.
In the case of `CCn1c2ccc(C(=O)N/N=C/c3cn(-c4ccccc4)nc3-c3ccc(OC(F)F)cc3)cc2c[n+]1C`, the IC90 is greater than 10 µM. The negative logarithm of the IC50 (pIC50) (PBLUC_HILL_SLOPE 9.98, PBLUC_R_SQUARED 0.817, read-out: LUCIFERASE INFECTION ASSAY - IC50) is 5.09.
Regarding `COc1ccc(Cc2nn3c(C(=S)NCCCN4CCOCC4)c(-c4ccc(Cl)cc4)c4c3n2CCCC4)cc1`, the IC90 is greater than 10 µM. Besides, the negative-log IC50 (pIC50) (PBLUC_HILL_SLOPE 10, PBLUC_R_SQUARED 0.392, read-out: LUCIFERASE INFECTION ASSAY - IC50) was 5.09.
As for `Cc1[nH]c2ccc(F)cc2c(=O)c1I`, the IC90 worked out at 1.32 µM. In addition, the pIC50 (PBLUC_HILL_SLOPE 10, PBLUC_R_SQUARED 0.604, read-out: LUCIFERASE INFECTION ASSAY - IC50) is 5.97.
Regarding `Cc1cc(C)c(C)c(S(=O)(=O)N2CCN(S(=O)(=O)c3ccc(C(C)C)cc3)CC2)c1C`, the IC90 was greater than 10 µM. Also, for the setting “PBLUC_HILL_SLOPE 10.5, PBLUC_R_SQUARED 0.247, read-out: LUCIFERASE INFECTION ASSAY - IC50”, the pIC50 is 5.06.
For `Nc1ccc(-c2cn3c(-c4cccc(OC(F)(F)F)c4)cnc3cn2)cn1`, the IC90 was found to be 4.23 µM. Further, where the note is “PBLUC_HILL_SLOPE 9.99, PBLUC_R_SQUARED 0.381, read-out: LUCIFERASE INFECTION ASSAY - IC50”, the negative-log IC50 (pIC50) was 5.47.
As for `O=C1N(Cc2ccccn2)C(=O)C2(CCN(C3CCc4ccccc4C3)CC2)N1Cc1ccccc1` (configuration not stated), the 90% effect concentration (IC90) is greater than 6.87 µM. For the setting “PBLUC_HILL_SLOPE 10, PBLUC_R_SQUARED 0.136, read-out: LUCIFERASE INFECTION ASSAY - IC50”, the pIC50 is 5.19.
On to `CCN(CC)c1ccc(NC(=O)c2[nH]nc3ccccc23)cc1S(=O)(=O)Nc1ccc(OC)cc1`, for which the IC90 is greater than 10 µM. Besides, where the note is “PBLUC_HILL_SLOPE 10.5, PBLUC_R_SQUARED 0.206, read-out: LUCIFERASE INFECTION ASSAY - IC50”, the pIC50 was 5.04.
On to `Cc1cc(=O)n2nc(CSc3nc4ccc(Cl)cc4c(=O)n3CC(C)C)sc2n1`, for which the IC90 was found to be 4.07 µM. The negative-log IC50 (pIC50) (PBLUC_HILL_SLOPE 10, PBLUC_R_SQUARED 0.71, read-out: LUCIFERASE INFECTION ASSAY - IC50) is 5.49.
For `COc1cc(-c2cnc(N)c(-c3ccc(F)c(Cl)c3)c2)ccc1O`, the IC90 was greater than 9.57 µM. Under “PBLUC_HILL_SLOPE 10.3, PBLUC_R_SQUARED 0.243, read-out: LUCIFERASE INFECTION ASSAY - IC50”, the negative-log IC50 (pIC50) is 5.08.
For `COc1ccc2c(c1)C(=O)/C(=C\c1ccc(OCc3nccn3C)cc1)CO2`, the 90% effect concentration (IC90) is greater than 10 µM. Besides, the pIC50 (PBLUC_HILL_SLOPE 10.1, PBLUC_R_SQUARED 0.104, read-out: LUCIFERASE INFECTION ASSAY - IC50) is 5.07.
`COC(=O)c1noc(C)c1-c1ccnn1C(=O)Nc1cccc(Cl)c1`: the IC90 amounted to 8.47 µM. Further, the pIC50 (PBLUC_HILL_SLOPE 10.3, PBLUC_R_SQUARED 0.543, read-out: LUCIFERASE INFECTION ASSAY - IC50) is 5.16.

The term pIC50 denotes the negative decadic logarithm of the IC50, by convention in mol/L. Broadly, the IC90 is the point of the concentration-response curve where the effect stands at 90%.
